From patent publication US20120115878A1, “SALT(S) OF 7-CYCLOPENTYL-2-(5-PIPERAZIN-1-YL-PYRIDIN-2-YLAMINO)-7H-PYRROLO[2,3-D]PYRIMIDINE-6-CARBOXYLIC ACID DIMETHYLAMIDE AND PROCESSES OF MAKING THEREOF” (priority 2010, published 2012) come the findings set out here.

Data set [1] can be described thus: Dynamic Vapor Sorption (DVS) isotherm, 0-90-0% RH cycle, two cycles. The format is physicochemical.
The nature of data set [2]: Dynamic Vapor Sorption (DVS) isotherm, 0-80-0% RH cycle. The format is physicochemical. Particulars: for Change In Mass (%) Desorption / Change In Mass (%) Hysteresis: 0-80-0% RH cycle, Cycle 1.
Data set [3] is described as follows: Physical form characterization (XRPD, DSC, TGA) after DVS exposure to 90% RH. In kind it is physicochemical.
Data set [4] is described as follows: Physical form characterization (XRPD) after DVS exposure to 80% RH.

As for `CN(C)C(=O)c1cc2cnc(Nc3ccc(N4CCNCC4)cn3)nc2n1C1CCCC1.O=C(O)CCC(=O)O` [Compound of Formula (II), 7-Cyclopentyl-N,N-dimethyl-2-(5-(piperazin-1-yl)pyridin-2-ylamino)-7H-pyrrolo[2,3-d]pyrimidine-6-carboxamide succinate], the figures for the moisture absorbed entry in data set [1] (at 90% RH in each cycle (0 to 90 to 0% RH)) and in data set [2] (at 80% RH (0 to 80 to 0% RH)) were “up to 2%” and “up to 0.5%”, respectively. Moreover, the hygroscopic behavior entry in data set [1] (at high humidity conditions (90% RH)) was “slight hygroscopic behavior”; in data set [2] (printed 'at 80° C.' (0 to 80 to 0% RH cycle)) it was “nearly non-hygroscopic behavior”. Moreover, the “Change In Mass (%) Desorption” value in data set [2] (target RH 0.0%) came out at 0.0434%; in data set [2] (target RH 10.0%), 0.2958%; in data set [2] (target RH 20.0%), 0.3436%; in data set [2] (target RH 30.0%) it was 0.3806%; in data set [2] (target RH 40.0%), 0.4037%; in data set [2] (target RH 50.0%), 0.4311%. In addition, the figures for the “Change In Mass (%) Desorption” value in data set [2] (target RH 60.0%), in data set [2] (target RH 70.0%) and in data set [2] (target RH 80.0%) were 0.4614%, 0.4952% and 0.5200%, respectively. In addition, the “Change In Mass (%) Hysteresis” value in data set [2] (target RH 10.0%) was determined as 0.0871%; in data set [2] (target RH 20.0%) it was 0.0708%; in data set [2] (target RH 40.0%), 0.0133%; in data set [2] (target RH 50.0%), 0.0074%; in data set [2] (target RH 60.0%), 0.0140%; in data set [2] (target RH 70.0%) it was 0.0159%. For the same compound, in data set [3] (XRPD, DSC, TGA after DVS 0-90-0% RH), the “physical form upon exposure to 90% RH” value is “change in physical form”. Also, in data set [3] (around 100° C., after exposure to 90% RH), the “weight loss at endothermic transition” value worked out at 3%. The “converted from the non-hydrate form to hydrate form” value in data set [3] (at 90% RH) is “about 7.35%”; in data set [4] (at 80% RH), “about 0.52%”. Besides, the “physical form upon exposure to 80% RH” value in data set [4] (XRPD after DVS 0-80-0% RH) is “stability of the physical form”.

For `CN(C)C(=O)c1cc2cnc(Nc3ccc(N4CCNCC4)cn3)nc2n1C1CCCC1.O=C(O)CCC(=O)O` [non-hydrate form, succinate salt of 7-Cyclopentyl-2-(5-piperazin-1-yl-pyridin-2-ylamino)-7H-pyrrolo[2,3-d]pyrimidine-6-carboxylic acid dimethylamide], the hygroscopicity result in data set [2] (general statement) was “non-hygroscopicity”. Moreover, in data set [4] (general statement), the stability entry is recorded as “good stability”.
